Experimental data as given in patent US20210220314A1, “AMINO ACID COMPOSITION FOR ENABLING FULFILMENT OF THE AMINO ACID REQUIREMENTS OF A MONOGASTRIC ANIMAL SUCH AS A HUMAN OR A PIG” (VETAGRO INTERNATIONAL S.R.L., priority 2018, published 2021).

Conditions: pig, in vivo, po

C/C=C/C=C/C(=O)O [sorbic acid]
presence of marker in the content of different sections of the gastrointestinal tract: present in the different intestinal sections only when administered in encapsulated form in the lipid matrix

COc1cc(C=O)ccc1O [vanillin]
presence of marker in the content of different sections of the gastrointestinal tract: present in the different intestinal sections only when administered in encapsulated form in the lipid matrix
